Tested on: CD8+ T cells in PBMCs of COVID-19 patients
Format: cell-based, human

Sequence: YFQPRTFLL [YLQ mutant]
- wild type tetramer-positive CD8+ T cells after expansion with mutant versus wild type peptide (in words): reduced numbers of YLQ tetramer positive cells

From article PMC8224398, “SARS-CoV-2 mutations in MHC-I-restricted epitopes evade CD8^+ T cell responses” (Science Immunology, 2021)
